Where “and” joins values, the source holds several entries; their conditions need not be identical. Identical values can stand only once. Counter-ions that a name gives are not always drawn. Values belong to the compound of their own block, whether it stands above or below them.
Assays:
[1] = biological target: T1, Gingival Crevicular Fluid Collagenase (Homo sapiens, UniProt P22894); assay: Crevicular Fluid Assay; type: biochemical; settings: diseased crevicular fluid + 30 mcg./ml. compound; control 66 ± 9; p<0.0005
T1 construct: from tissue; host or cells: gingival crevicular fluid of a volunteer with periodontal disease
From the text: (§1) An active inhibitor would inhibit the degradation of the collagen fibril; (iii) Leukocyte Neutral Proteases Inhibitor Assay--This test measures the ability of neutral proteases derived from human leukocytes to degrade radiolabeled proteoglycans entrapped in polyacrylamide beads.
(ii) Crevicular Fluid Assay
Effect of Test Compounds on Gingival Crevicular Fluid Collagenase
Since studes by Golub, et al., Dental Res., 55, 1049 (1976) have shown that the crevicular collagenase plays a major role in the degradation of collagen in periodontal tissue, the effect of test compounds on collagen degradation by this system was examined. A volunteer with diagnosed periodontal disease was used. […] After one minute, the filter paper strip was removed and the volume of the gingival crevicular fluid was measured with the aid of the Periotron (Harco Electronics, Ltd., Winnipeg, Canada). The volume of the fluid gathered from the crevice by the filter paper strip is translated by a unique transducer onto a digital readout screen. […] After reading on the meter, 1 μl. of trypsin (1.5 μg./ml.) was added to the filter paper (to activate any latent collagenase present) and after five minutes at room temperature 1 μl. of aprotinin was added. […] The tubes were centrifuged as described above and a 200 μl. aliquot of the clear supernatant was assayed for radioactivity.

[2] = tested on: neutral proteases derived from human leukocytes; assay: Leukocyte Neutral Proteases Inhibitor Assay; type: biochemical; settings: for Percent Inhibition of Neutral Protease Activity ^3 H: ^3 H label; for Percent Inhibition of Neutral Protease Activity ^35 S: ^35 S label
Method: as §1
(iii) Leukocyte Neutral Proteases Inhibitor Assay
Assays of Leukocyte Neutral Proteases Using ^3 H/^35 S Labeled Proteoglycans
This assay system contained (total volume of 1 ml.) 60 mM Tris-Cl, pH 7.4; 2.5 mM calcium chloride; 2.5 mM magnesium chloride; 2 mg. (dry weight) of polyacrylamide beads entrapped with labeled proteoglycans, and an aliquot of the leukocyte neutral protease preparation. The reaction mixture was incubated at 37° C. for 30 minutes in a shaking water bath. The reaction was terminated by the addition of 0.2 ml. of 5% HCl (v/v). After five minutes at room temperature, the mixture was centrifuged and the clear supernatant (0.6 ml.) was assayed for radioactivity. To determine the effect of the test compounds on degradation of proteoglycans by neutral proteases, various concentrations of the compounds were added to the reaction mixture. Appropriate blanks were included.

[3] = tested on: fibroblast collagenase and leukocyte neutral protease; assay: Enzymatic Degradation of Collagen of Human Gingiva; type: biochemical; settings: 37° C., 36 hours, control 102.3
Method: The test compounds are able to inhibit the degradation of collagen of gingival tissue. Dried pieces of human gingiva were incubated at 37° C. for 36 hours with fibroblast collagenase and leukocyte neutral protease in the presence of test compound (30 and 50 μg./ml.). Antibiotics were present to prevent bacterial growth. After incubation, the residual tissue was hydrolyzed in 6 N hydrochloric acid and the hydroxyproline content (collagen) was determined. When collagenase and neutral protease were added to human gingiva, approximately 100 μg of collagen/mg. dry tissue was digested. If the test compound was present, degradation of gingival collagen was inhibited.

[4] = biological target: T2, human skin fibroblast collagenase (Homo sapiens, UniProt P03956); assay: Collagenase Assay, Test Code 006; type: biochemical; settings: test conc.: 30 μg./ml.
T2 construct: endogenous in cells; host or cells: human skin fibroblasts
T2 sequence (P03956 100-469): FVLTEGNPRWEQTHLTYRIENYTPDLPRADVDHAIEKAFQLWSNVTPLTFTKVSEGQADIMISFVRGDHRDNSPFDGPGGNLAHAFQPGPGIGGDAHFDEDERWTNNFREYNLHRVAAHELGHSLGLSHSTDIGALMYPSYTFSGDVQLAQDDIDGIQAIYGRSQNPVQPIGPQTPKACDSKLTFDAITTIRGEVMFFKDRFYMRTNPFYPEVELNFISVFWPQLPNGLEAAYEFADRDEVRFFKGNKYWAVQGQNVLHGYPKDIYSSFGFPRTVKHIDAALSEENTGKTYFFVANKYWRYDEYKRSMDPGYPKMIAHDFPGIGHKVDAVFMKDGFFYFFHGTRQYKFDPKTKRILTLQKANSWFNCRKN
Method: (i) Collagenase Assay--Test Code 006
In a typical assay (total volume of 0.45 ml.), 100 μl. of the activated enzyme was added to the ^14 C-labeled collagen fibrils (250 μl.) followed by 100 μl. of 50 mM cacodylate, pH 7.4, containing 5 mM calcium chloride. After incubation at 37° C. for 16 hours, the tubes were centrifuged in a Beckman microfuge for five minutes at full speed. An aliquot (200 μl.) of the supernatant, representing collagenase digestion products of the fibril, was assayed for radioactivity. The effect of the test compound on collagen degradation by collagenase was examined as follows:
Appropriate blanks and trypsin controls were run in parallel.

[5] = tested on: corneal ulcerations; settings: alkali burned rabbit; directly applied to corneal ulcerations; cited from earlier work
[6] = tested on: collagenase; settings: Thromb. Res. 1977, 10(4), 605-11; cited from earlier work
[7] = tested on: corneal ulceration; settings: human; cited from earlier work

T1 sequence (P22894 101-467): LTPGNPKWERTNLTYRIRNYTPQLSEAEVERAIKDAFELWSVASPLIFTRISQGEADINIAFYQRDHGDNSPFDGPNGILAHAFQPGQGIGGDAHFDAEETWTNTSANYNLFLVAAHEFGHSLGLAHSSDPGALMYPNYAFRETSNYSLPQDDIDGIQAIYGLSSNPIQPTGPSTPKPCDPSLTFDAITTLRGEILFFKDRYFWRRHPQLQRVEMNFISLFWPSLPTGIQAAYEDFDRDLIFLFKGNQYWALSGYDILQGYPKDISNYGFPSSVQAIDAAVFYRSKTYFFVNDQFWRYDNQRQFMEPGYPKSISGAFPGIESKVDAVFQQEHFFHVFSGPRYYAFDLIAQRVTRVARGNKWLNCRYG

cpm Collagen Degraded/Unit Periotron Reading [1]: 16 ± 6 cpm | mcg. of Collagen degraded per mg. of dry gingiva ([3]; neutral proteases plus 30 mcg./ml. compound): 60.4 mcg. per mg. | mcg. of Collagen degraded per mg. of dry gingiva ([3]; neutral proteases plus 50 mcg./ml. compound): 27.4 mcg. per mg.
SMILES: O=C(Nc1cccc(C(=O)Nc2ccc3cc(S(=O)(=O)O)cc(O)c3c2)c1)Nc1cccc(C(=O)Nc2ccc3cc(S(=O)(=O)O)cc(O)c3c2)c1 [6,6'-[Ureylenebis(3,1-phenylenecarbonylimino)]bis[4-hydroxy-] [6,6'-[Ureylenebis(m-phenylenecarbonylimino)]bis[4-hydroxy-2-naphthalenesulfonic acid]disodium salt]
Percent Inhibition of Neutral Protease Activity ^3 H ([2]; 0.5 mcg./ml.): 0% | Percent Inhibition of Neutral Protease Activity ^35 S ([2]; 0.5 mcg./ml.): 0% | Percent Inhibition of Neutral Protease Activity ^3 H ([2]; 1.0 mcg./ml.): 17% | Percent Inhibition of Neutral Protease Activity ^35 S ([2]; 1.0 mcg./ml.): 31% | Percent Inhibition of Neutral Protease Activity ^3 H ([2]; 2.0 mcg./ml.): 21% | Percent Inhibition of Neutral Protease Activity ^35 S ([2]; 2.0 mcg./ml.): 37% | Percent Inhibition of Neutral Protease Activity ^3 H ([2]; 5.0 mcg./ml.): 47% | Percent Inhibition of Neutral Protease Activity ^35 S ([2]; 5.0 mcg./ml.): 74% | Percent Inhibition of Neutral Protease Activity ^3 H ([2]; 10.0 mcg./ml.): 63% | Percent Inhibition of Neutral Protease Activity ^35 S ([2]; 10.0 mcg./ml.): 91%

% Inhibition of Collagenase [4]: 82% and 81%
SMILES: O=C(Nc1cccc(C(=O)Nc2ccc3cc(S(=O)(=O)O)cc(O)c3c2)c1)Nc1cccc(C(=O)Nc2ccc3cc(S(=O)(=O)O)cc(O)c3c2)c1 [6,6'-[Ureylenebis(3,1-phenylenecarbonylimino)]bis[4-hydroxy-] [6,6'-[Ureylenebis(m-phenylenecarbonylimino)]bis[4-hydroxy-2-naphthalenesulfonic acid]tetrasodium salt]

inhibition at 30 µg/mL [4]: 82%
SMILES: O=C(Nc1cccc(C(=O)Nc2ccc3cc(S(=O)(=O)O)cc(O)c3c2)c1)Nc1cccc(C(=O)Nc2ccc3cc(S(=O)(=O)O)cc(O)c3c2)c1 [6,6'-[Ureylenebis(m-phenylenecarbonylimino)]bis[4-hydroxy-2-naphthalenesulfonic acid]disodium salt]

inhibition at 30 µg/mL [4]: 95%
SMILES: O=C(Nc1ccc(C(=O)Nc2ccc3cc(S(=O)(=O)O)cc(O)c3c2)cc1)Nc1ccc(C(=O)Nc2ccc3cc(S(=O)(=O)O)cc(O)c3c2)cc1 [6,6'-[Ureylenebis(p-phenylenecarbonylimino)]bis[4-hydroxy-2-naphthalenesulfonic acid]tetrasodium salt]

SMILES: O=C([O-])CN(CCN(CC(=O)[O-])CC(=O)[O-])CC(=O)[O-].[Ca+2].[Ca+2] [Calcium ethylenediaminetetraacetate]
frequency of ulceration [5]: reduce the frequency of ulceration

SMILES: Cc1ccc(C(=O)Nc2ccc(S(=O)(=O)O)c3cc(S(=O)(=O)O)cc(S(=O)(=O)O)c23)cc1NC(=O)c1cccc(NC(=O)Nc2cccc(C(=O)Nc3cc(C(=O)Nc4ccc(S(=O)(=O)O)c5cc(S(=O)(=O)O)cc(S(=O)(=O)O)c45)ccc3C)c2)c1 [Suramin]
inhibition of the activity of collagenase [6]: not inhibiting the action of collagenase

SMILES: CC(=O)N[C@@H](CS)C(=O)O [acetylcysteine]
frequency of ulceration [5]: reduce the frequency of ulceration | treatment of acute and chronic corneal ulceration [7]: effective

SMILES: N[C@@H](CS)C(=O)O [cysteine]
treatment of acute and chronic corneal ulceration [7]: effective

SMILES: Cc1cc(-c2ccc(/N=N/c3c(S(=O)(=O)O)cc4cc(S(=O)(=O)O)cc(N)c4c3O)c(C)c2)ccc1/N=N/c1c(S(=O)(=O)O)cc2cc(S(=O)(=O)O)cc(N)c2c1O [trypan blue]
inhibition of the activity of collagenase [6]: inhibiting the activity of collagenase

— patent US4216164A, “Ureide inhibitors of connective tissue destruction” (American Cyanamid Company, priority 1978, dated 1980)
